The record followed here is ChEMBL document CHEMBL3046518, “Phytotoxic Compounds Cochlioquinones Are Inhibitors of Mitochondrial NADH-Ubiquinone Reductase” (J Pestic Sci, 1996).

The nature of experiment [1]: Inhibition of Bos taurus (bovine) heart mitochondrial […] activity assessed per mg protein.
Experiment [2] is described as follows: Inhibition of Solanum tuberosum (potato) tuber proton-pump NADH dehydrogenase activity assessed per mg protein.
Experiment [3] is described as follows: Inhibition of Bos taurus (bovine) heart mitochondrial electron transport protein complex 2 assessed per mg protein.
A short description of experiment [4]: Inhibition of Bos taurus (bovine) heart mitochondrial electron transport protein complex 1 assessed per mg protein.
Experiment [5] in a line: Inhibition of Bos taurus (bovine) heart mitochondrial electron transport protein complex 2/3 assessed per mg protein.
Experiment [6] has as its system Solanum tuberosum. As to the kind of experiment: Inhibition of Solanum tuberosum (potato) tuber succinate oxidase activity at 3600 nmol/mg protein.
Experiment [7] has as its system Solanum tuberosum. As to the kind of experiment: Inhibition of Solanum tuberosum (potato) tuber electron transport protein complex 2 activity.
Experiment [8] relates to Solanum tuberosum. Briefly: Inhibition of Solanum tuberosum (potato) tuber electron transport protein complex 4 activity.
Experiment [9] in a line: Inhibition of Bos taurus (bovine) heart mitochondrial electron transport protein complex 3 assessed per mg protein.
Experiment [10] can be described thus: Inhibition of Bos taurus (bovine) heart mitochondrial electron transport protein complex 4 assessed per mg protein.
For experiment [11], the system named is Solanum tuberosum. As to the kind of experiment: Inhibition of Solanum tuberosum (potato) tuber electron transport protein complex 3 activity.

Structures are written as SMILES. Active and inactive are the calls of the source. No cut-off for these calls is given here.

For `CC[C@H](C)[C@@H](OC(C)=O)[C@@H](C)C1=CC(=O)C2=C(O[C@]3(C)CC[C@H]4O[C@@H](C(C)(C)O)CC[C@]4(C)[C@H]3[C@@H]2O)C1=O` [COCHLIOQUINONE A], the IC50 in experiment [1] turned out to be 115 nmol.
For the molecule `CC[C@H](C)C(=O)[C@@H](C)C1=CC(=O)C2=C(O[C@]3(C)CC[C@H]4O[C@@H](C(C)(C)O)CC[C@]4(C)[C@H]3C2)C1=O` [COCHLIOQUINONE B], the IC50 is given as 3000 nmol in [2]; over 3600 nmol in [3]; 83 nmol in [1]; 370 nmol in experiment [4]; over 3600 nmol in experiment [5]; over 3600 nmol in experiment [9]. Further, the IC50 in experiment [10] is reported as over 3600 nmol. In addition, the inhibition entry in experiment [6], in experiment [7], in experiment [8] and in experiment [11] was “inactive” in each case.
As to `CC[C@H](C)[C@@H](OC(C)=O)[C@@H](C)c1cc(O)c2c(c1O)O[C@]1(C)CC[C@H]3O[C@@H](C(C)(C)O)CC[C@]3(C)[C@H]1C2=O` [ISOCOCHLIOQUINONE A], the IC50 in experiment [1] is given as 56 nmol.
The same measure, in the same setting: the figure for `C/C=C(\C)[C@@H](OC(C)=O)[C@@H](C)C1=CC(=O)C2=C(O[C@]3(C)CC[C@H]4O[C@@H](C(C)(C)O)CC[C@]4(C)[C@H]3[C@@H]2O)C1=O` [STEMPHONE] is 160 nmol.
